These results are taken from article PMC9873984, “Membrane cholesterol regulates inhibition and substrate transport by the glycine transporter, GlyT2” (Life Science Alliance, 2023).

Numbering of substitutions follows the chain as printed.

For one assay, the target named is T1, WT GlyT2 (Homo sapiens, UniProt Q9Y345).
T1 sequence (Q9Y345 1-797): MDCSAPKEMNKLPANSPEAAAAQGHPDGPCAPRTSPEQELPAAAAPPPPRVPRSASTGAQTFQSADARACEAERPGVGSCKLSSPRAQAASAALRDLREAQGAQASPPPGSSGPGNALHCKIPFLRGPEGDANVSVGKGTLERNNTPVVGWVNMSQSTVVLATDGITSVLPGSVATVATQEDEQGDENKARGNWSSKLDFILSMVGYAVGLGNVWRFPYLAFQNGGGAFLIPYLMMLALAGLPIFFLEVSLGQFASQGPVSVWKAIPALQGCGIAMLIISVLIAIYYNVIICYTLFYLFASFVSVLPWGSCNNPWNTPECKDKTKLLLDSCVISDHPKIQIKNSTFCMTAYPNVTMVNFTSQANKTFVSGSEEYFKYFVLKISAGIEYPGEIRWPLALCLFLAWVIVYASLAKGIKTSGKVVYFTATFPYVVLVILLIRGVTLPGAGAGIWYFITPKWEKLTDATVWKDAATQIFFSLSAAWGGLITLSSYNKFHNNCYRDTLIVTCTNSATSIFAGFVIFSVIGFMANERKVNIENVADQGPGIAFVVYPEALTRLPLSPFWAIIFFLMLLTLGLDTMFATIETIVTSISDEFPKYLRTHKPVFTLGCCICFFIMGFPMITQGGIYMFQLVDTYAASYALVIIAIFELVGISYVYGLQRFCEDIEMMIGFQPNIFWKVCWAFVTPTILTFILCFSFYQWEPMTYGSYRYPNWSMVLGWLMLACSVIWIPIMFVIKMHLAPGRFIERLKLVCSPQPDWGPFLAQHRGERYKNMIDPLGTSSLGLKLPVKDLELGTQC
The settings on record: read-out: Glycine EC50; WT GlyT2 in Xenopus laevis oocytes; glycine 1 μM – 3 mM. Here is the method: The transport activity of GlyT2 is an electrogenic process as it couples the transport of glycine to the co-transport of 3 Na^+ and 1 Cl^− and thus can be measured using two-electrode voltage-clamp electrophysiology. Oocytes expressing GlyTs were voltage-clamped at −60 mV, and glycine-induced whole-cell currents were measured using a GeneClamp 500 amplifier (Axon Instruments), and a PowerLab 2/26 chart recorder (ADInstruments) and LabChart Software (ADInstruments).
Functionality of WT and mutant GlyT2 transporters was assessed by applying increasing concentrations of glycine (1–3,000 µM) in ND96 until a stable current was achieved. Glycine concentrations were applied individually and completely removed from the system via washing with recording buffer before proceeding to the next concentration. EC50 values for each transporter were determined by fitting concentration–response data to the modified Michaelis–Menten equation: I=([Gly].Imax)/(EC50+[Gly]), where I is current in nA, [Gly] is the concentration of glycine, Imax is the current generated by a maximal concentration of glycine, and EC50 is the concentration of glycine that generates a half-maximal current.

The target of a further assay is T2, GlyT2 Y430L mutant (Homo sapiens, UniProt Q9Y345, Y430L).
T2 sequence (Q9Y345 1-797 Y430L): T1 sequence (Q9Y345 1-797) with Y430L
Briefly: Inhibitor concentration–responses on glycine transport currents, two-electrode voltage clamp. The assay is classed as cell-based. Further details: expressed in transfected cells; host or cells: Xenopus laevis oocytes injected with mutant RNA (pOTV vector). As to conditions: for IC50: Y430L GlyT2 in Xenopus laevis oocytes. Here is the method: Because of the slowly reversible nature of the compounds tested, inhibitor concentration–responses were performed cumulatively. An EC50 concentration of glycine was applied until a stable transport current was reached. EC50 concentrations of glycine were used to produce reliable currents for each transporter, and as the inhibitors are non-competitive, application of varying glycine concentrations is unlikely to affect their activity. Increasing concentrations of inhibitors were co-applied with glycine with each concentration producing a distinct plateau before the subsequent concentration was applied. Inhibitor concentration–responses were limited to a maximum concentration of 3 µM to mitigate the risk of changes to the free drug concentration because of micelle formation. Currents after the plateau of each inhibitor concentration were normalized to the current produced by application of glycine alone and fit using the method of least squares: Y=Bottom+(Top−Bottom)/(1+10^[X−LogIC50]), where X is log [inhibitor], Y is current normalized to glycine in the absence of inhibitor, and Top and Bottom are the maximal and minimal plateaus, respectively. The method of least squares was constrained to have the bottom value >0 and the hill slope as −1, enabling the calculation of IC50 values and the extent of inhibition produced by the maximal concentration applied.
IC50 values are presented as the mean and 95% confidence interval, whereas inhibition values are presented as the mean ± SEM. Data sets are n ≥ 5 from two batches of oocytes.
A general note: Two-electrode voltage clamp holds a large cell at a set potential and records current.

Take `NCC(=O)O` [Glycine, glycine]: the EC50 on WT GlyT2 was determined as 18000 nM.

`CCCCCCCC/C=C\CCCCCCCC(=O)O[C@H](CC(=O)[O-])C[N+](C)(C)C` [Oleoyl-L-Carnitine, oleoyl-L-carnitine]: half-maximal inhibition on GlyT2 Y430L mutant (95% CI could not be fit) (IC50) required 1100 nM. Besides, the “Inhibition at 1 µM (column head 3 μM, footnote b)” value at GlyT2 Y430L mutant (Y430L, 1 µM) is on record as 49.6 ± 2.9^b %.

In the case of `CCCCCCCC/C=C\CCCCCCCC(=O)N[C@@H](CC(C)C)C(=O)O` [Oleoyl-L-Leucine, oleoyl-L-leucine], at GlyT2 Y430L mutant, the IC50 was determined as 375 nM. The “Inhibition at 3 μM” value on GlyT2 Y430L mutant (Y430L) was 63.8 ± 2.6%.

Turning to `CCCCCCCC/C=C\CCCCCCCC(=O)N[C@@H](CCCCN)C(=O)O` [Oleoyl-L-Lysine, oleoyl-L-lysine], the IC50 is 863 nM against GlyT2 Y430L mutant and 860 nM against GlyT2 Y430L mutant (listed as OLLys). Further, the “Reduction of potency compared with WT” value at GlyT2 Y430L mutant (Y430L vs WT) is “fourfold”. Further, the “Inhibition at 3 μM” value on GlyT2 Y430L mutant (Y430L) amounted to 69.7 ± 4.7 %.

At GlyT2 Y430L mutant, `CCCCCCCC/C=C\CCCCCCCC(=O)N[C@@H](Cc1c[nH]c2ccccc12)C(=O)O` [Oleoyl-L-Tryptophan, oleoyl-L-tryptophan] had an IC50 of 57 nM. The “Inhibition at 3 μM” value on GlyT2 Y430L mutant (Y430L) is given as 83.5 ± 3.2%.

Usually EC50 stands for the concentration needed to bring the measured effect to its halfway point. As usually defined, the IC50 is the concentration at which inhibition is half-maximal. Higher therefore signals weaker potency. As usually defined, the Inhibition is the drop in the measured response relative to a control, in per cent.
